Measurements as given in US5945508A, “Substance P treatment for immunostimulation” (priority 1997, dated 1999).
Read-outs that look alike come from different tables or passages of the source.

Assays:
[1] = test system: LP-BM5 murine leukemia retrovirus; experiment: Spleen changes and total cell numbers, LP-BM5 mouse AIDS model; format: in vivo, C57BL6 mice
Method: C57BL6 mice, average weight of 25-30 grams, were infected with the LP-BM5 murine leukemia retrovirus to simulate the human AIDS virus. […] The mice were divided into two groups; LP-BM5 virus only and LP-BM5 virus+substance P aerosol therapy at 1 μM concentration. The mice were killed at 4 and 8 weeks postinoculation.

[2] = test system: lymphocyte subpopulations; experiment: Flow cytometric analyses (FACS); format: in vivo, C57B16 mice
Method: At 24 hours after the last exposure, the animals were sacrificed and the effects of exposure on the immune system examined. Immune organs (spleen, thymus, blood, lymph nodes and bone marrow) were recovered and analyzed for effects on organ weight, total cell numbers, immune cell populations (by differentials), and lymphocyte subpopulations (by flow cytometry). Assays were also performed to examine the effects of exposure on immune function. […] Similar effects on immune cell subpopulations were also observed in lymph nodes. In the thymus it appeared that the immature CD4^+ CD8^+ cells were differentially lost due to exposure. […] However, these effects are prevented or ameliorated by treatment of the animals with Substance P.
One- and two-color FACS analyses are performed using a Becton-Dickinson FACStar Plus flow cytometer. Cells are stained with the indicated monoclonal antibodies according to standard procedures (Harris et al., id). Cells alone and cells reacted with conjugated isotype control, irrelevant mAbs are used as controls. Data is presented as the percentage of cells staining positive for each individual mAb.

[3] = test system: spleen, thymus and bone marrow cells; experiment: JP-8 jet fuel exposed mice, cell numbers (FIGS. 1-3); format: in vivo, C57BL6 mice; settings: 1 micromolar aerosol 15 minutes after each exposure
Text: Since mice are nose-breathers, they were exposed to the aerosol/vapor mixture via nose-only presentation while they were held in individual loading tubes. The tubes were nose-fitted to receiving adaptors that originated from the common anodized aluminum exposure chamber (volume 0.3 m^3, IN-TOX, Albuquerque, N. Mex.). Noses were positioned in the exposure ports to minimize systemic absorption that might occur during total body exposure or through the process of self-grooming after exposure. The mice were rotated on a daily basis through the 24-adaptor positions of the exposure chamber. This was done to minimize proximity to the jet fuel source as a variable in exposure concentration or composition. Passive entrainment of the jet fuel aerosol/vapor mix and room air through the IN-TOX chamber was conducted by vacuum (15 liters/min). The vacuum was applied to the exposure chamber on the side opposite the fuel source. Animal exposure ports not in use were sealed during the exposure period. Longitudinal controls were sham-exposed in a manner identical to those receiving jet fuel, except that only room air was introduced into the exposure chamber. The exposure chamber was thoroughly cleaned prior to the longitudinal control group's exposure.
The substance P aerosol therapy was performed at the completion of the JP-8 jet fuel exposure. The nebulizer was modified with clean hoses and a new sonication crucible. […] The substance P aerosol therapy was conducted for the same seven day period over a total time period of nine days as the JP-8 jet fuel exposure regimen.

[4] = test system: murine melanoma B16 cancer cells; settings: 1×10^5 B16 cells, mean (SEM)
Method: The mice were infected with 1×10^5 murine melanoma B16 cancer cells by tail vein injection. […] The second group of mice was treated with the same SP dose starting at one week post-injection for seven days. Survival was assessed to determine the effect of SP aerosol therapy in prolonging life when mice are challenged with a massive cancer challenge.

[5] = JP-8 1000 mg/m^3 + SP, nSP (1 nM), CP or RP

## Substance P [SP]
[1]; 4 weeks after LP-BM5 infection, SP aerosol 1 μM
  total cell numbers (spleen) versus LP-BM5 group: not accompanied by an increase in total cell numbers
[1]; LP-BM5 mouse model, substance P aerosol therapy
  changes in the mouse spleens: significant changes in the mouse spleens
[2]; JP-8 250 mg/m^3 + SP
  BM CD3 positive cells: 13%
  BM CD4 positive cells: 10%
  BM CD8 positive cells: 3%
  BM CD45 positive cells: 48%
  BM MAC1 positive cells: 10%
  LN CD3 positive cells: 85%
  LN CD4 positive cells: 48%
  LN CD8 positive cells: 12%
  LN CD45 positive cells: 13%
  LN MAC1 positive cells: 1%
  PBL CD3 positive cells: 59%
  PBL CD4 positive cells: 15%
  PBL CD8 positive cells: 6%
  PBL CD45 positive cells: 16%
  PBL MAC1 positive cells: 1%
  Spleen CD3 positive cells: 62%
  Spleen CD4 positive cells: 27%
  Spleen CD8 positive cells: 3%
  Spleen CD45 positive cells: 21%
  Spleen MAC1 positive cells: 1%
  Thymus CD3 positive cells: 24%
  Thymus DN cells: 5%
  Thymus DP cells: 68%
  Thymus SP4 cells: 22%
  Thymus SP8 cells: 5%
[2]; [5]
  BM CD3 positive cells: 14%
  BM CD4 positive cells: 9%
  BM CD8 positive cells: 2%
  BM CD45 positive cells: 31%
  BM MAC1 positive cells: 26%
  LN CD3 positive cells: 86%
  LN CD4 positive cells: 29%
  LN CD8 positive cells: 11%
  LN CD45 positive cells: 22%
  LN MAC1 positive cells: 0%
  PBL CD3 positive cells: 61%
  PBL CD4 positive cells: 23%
  PBL CD8 positive cells: 10%
  PBL CD45 positive cells: 22%
  PBL MAC1 positive cells: 3%
  Spleen CD3 positive cells: 34%
  Spleen CD4 positive cells: 18%
  Spleen CD8 positive cells: 10%
  Spleen CD45 positive cells: 20%
  Spleen MAC1 positive cells: 5%
  Thymus CD3 positive cells: 20%
  Thymus DN cells: 10%
  Thymus DP cells: 65%
  Thymus SP4 cells: 16%
  Thymus SP8 cells: 6%
[2]; JP-8 2500 mg/m^3 + SP
  BM CD3 positive cells: 6%
  BM CD4 positive cells: 3%
  BM CD8 positive cells: 6%
  BM CD45 positive cells: 24%
  BM MAC1 positive cells: 34%
  Spleen CD3 positive cells: 38%
  Spleen CD4 positive cells: 26%
  Spleen CD8 positive cells: 14%
  Spleen CD45 positive cells: 31%
  Spleen MAC1 positive cells: 3%
  Thymus CD3 positive cells: 16%
  Thymus DN cells: 19%
  Thymus DP cells: 64%
  Thymus SP4 cells: 15%
  Thymus SP8 cells: 5%
[2]; dose 0 (no JP-8) + SP or CP
  BM CD3 positive cells: 12%
  BM CD4 positive cells: 11%
  BM CD8 positive cells: 1%
  BM CD45 positive cells: 48%
  Spleen CD3 positive cells: 42%
  Spleen CD4 positive cells: 26%
  Spleen CD8 positive cells: 11%
  Spleen CD45 positive cells: 23%
  Spleen MAC1 positive cells: 1%
  Thymus CD3 positive cells: 10%
  Thymus DN cells: 7%
  Thymus DP cells: 84%
  Thymus SP4 cells: 6%
  Thymus SP8 cells: 2%
[3]; JP-8 500 or 2500 mg/m^3 7 days
  effect on spleen cell number (FIG. 1): totally reverse the effect of the jet fuel on the spleen cell number
[3]; JP-8 exposed mice
  effect on bone marrow cells (FIG. 3): augments the stimulation substantially
  effect on thymus cell number (FIG. 2): substantially reverses the effect on cell number
[4]; 1 μM SP aerosol 15 min/day 7 days starting immediately
  Days alive after B16 cells: 31.5 (3.8) Days
[4]; SP aerosol 7 days starting one week after B16 cells
  Days alive after B16 cells: 26.0 (2.0) Days
